# Experimental data from ChEMBL document CHEMBL4304749, “Covalent Inhibitors of Protein-Protein Interactions Targeting Lysine, Tyrosine, or Histidine Residues” (J Med Chem, 2019).
# Square brackets hold non-standard residues; d marks the D form. Peptide text beside a SMILES is read from it. Tyr(SO2F) = N[C@@H](Cc1ccc(OS(=O)(=O)F)cc1)C(=O)O; NMeA = CN[C@@H](C)C(=O)O
# Columns and labels:
# [1] = Half-life of the compound at pH 7.2 by NMR spectroscopy; format: physicochemical
# [2] = Half-life in 50 mM phosphate buffer of pH 7.5 at 37 degreeC by 1H NMR method; format: physicochemical; details: for half-life: phosphate buffer; for t1/2: buffer
# [3] = Aqueous stability of the compound in simulated gastric fluid at pH 1.5 by NMR spectroscopy
# [4] = Stability in mouse plasma at 200 uM by LC-MS method; format: ADME, cell-free
# [5] = Half-life in mouse plasma at 200 uM by LC-MS method; format: ADME, cell-free
# [6] = Drug degradation in mouse plasma at 200 uM after 40 min by LC-MS method; format: ADME, cell-free; details: read-out: Drug degradation
# [7] = Aqueous stability of the compound pH 7.2 by NMR spectroscopy; format: physicochemical; details: buffer
# [8] = biological target: T1, E3 ubiquitin-protein ligase XIAP (Homo sapiens, UniProt P98170)
# T1 sequence (P98170 whole entry): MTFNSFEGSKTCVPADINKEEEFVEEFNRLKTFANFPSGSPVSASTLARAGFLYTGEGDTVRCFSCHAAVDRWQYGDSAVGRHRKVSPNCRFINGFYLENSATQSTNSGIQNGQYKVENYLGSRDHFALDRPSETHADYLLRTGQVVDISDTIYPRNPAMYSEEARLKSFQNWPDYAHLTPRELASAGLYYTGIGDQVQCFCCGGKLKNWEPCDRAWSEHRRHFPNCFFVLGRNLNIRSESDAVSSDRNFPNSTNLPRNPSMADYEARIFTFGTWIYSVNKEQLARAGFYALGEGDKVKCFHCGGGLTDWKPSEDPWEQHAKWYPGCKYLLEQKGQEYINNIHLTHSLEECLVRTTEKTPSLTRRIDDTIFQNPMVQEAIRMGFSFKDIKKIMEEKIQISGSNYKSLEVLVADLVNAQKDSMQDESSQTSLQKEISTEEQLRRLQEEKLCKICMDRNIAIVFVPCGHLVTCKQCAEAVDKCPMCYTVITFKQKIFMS
# [9] = biological target: T1, E3 ubiquitin-protein ligase XIAP; remark: listed apart in the source
# SK-OV-3 [10] = experiment: Induction of apoptosis in human SKOV3 cells assessed caspase-3 activation after 24 hrs by IncuCyte S3 live-cell analysis; format: functional, cell-based; details: SK-OV-3, 24 h
# SK-OV-3 [11] = experiment: Induction of apoptosis in human SKOV3 cells assessed caspase-3 activation after 48 hrs by IncuCyte S3 live-cell analysis; format: functional, cell-based; details: SK-OV-3, 48 h
# [12] = biological target: T1, E3 ubiquitin-protein ligase XIAP; experiment: biochemical
# [13] = biological target: T1, E3 ubiquitin-protein ligase XIAP; experiment: biochemical; remark: listed apart in the source
smiles,measurement,setting,value
CN[C@@H](C)C(=O)N[C@@H](CNC(=O)c1ccc(S(=O)(=O)F)cc1)C(=O)N1CCC[C@H]1C(=O)N[C@@H](Cc1ccccc1)C(N)=O,half-life,[1],30 min
same,half-life,[2],30 min
same,Stability,[3],Stable
same,Stability,[4],Unstable
CN[C@@H](C)C(=O)N[C@@H](Cc1ccc(S(=O)(=O)O)cc1)C(=O)N1CCC[C@H]1C(=O)N[C@@H](Cc1ccccc1)C(N)=O,t1/2,[2],> 5 h
CN[C@@H](C)C(=O)N[C@@H](Cc1ccc(OS(=O)(=O)F)cc1)C(=O)N1CCC[C@H]1C(=O)N[C@@H]1CCc2c(F)cccc21,half-life at 200 µM,[5],> 120 min
CN[C@@H](C)C(=O)N[C@@H](CNCc1ccc(S(=O)(=O)F)cc1)C(=O)N1CCC[C@H]1C(=O)N[C@@H]1CCc2c(F)cccc21,half-life at 200 µM,[5],15 min
same,"metabolised at 40 min, 200 µM",[6],100%
CN[C@@H](C)C(=O)N[C@@H](CNCc1ccc(S(=O)(=O)F)cc1)C(=O)N1CCC[C@H]1C(=O)N[C@@H](Cc1ccccc1)C(N)=O,half-life,[2],150 min
same,Stability,[3],Stable
same,Stability,[7],Stable
CN[C@@H](C)C(=O)N[C@@H](Cc1ccc(OS(=O)(=O)F)cc1)C(=O)N1CCC[C@H]1C(=O)NC1Cc2ccccc2C1,half-life at 200 µM,[5],> 120 min
CC(C)[C@H](NC(=O)[C@H](C)N)C(=O)N1CCC[C@H]1C(=O)N[C@@H](Cc1ccccc1)C(=O)O (H-AVPF-OH),half-life,[2],> 300 min
same,ΔTm,[8],5.5 °C
same,ΔTm,[9],17 °C
CN[C@@H](C)C(=O)N[C@@H](Cc1ccc(OS(=O)(=O)F)cc1)C(=O)N1CCC[C@H]1C(=O)N[C@@H](Cc1ccccc1)C(N)=O (H-[NMeA][Tyr(SO2F)]PF-NH2),t1/2,[2],> 5 h
same,Stability,[3],Stable
same,Stability,[7],Stable
CN[C@@H](C)C(=O)N[C@H](C(=O)N1CCC[C@H]1C(=O)Nc1snnc1-c1ccccc1)C1CCCCC1 [GDC-0152],half-life at 200 µM,[5],60 min
same,EC50,SK-OV-3 [10],3 nM
same,EC50,SK-OV-3 [11],2.5 nM
same,ΔTm,[8],15 °C
same,ΔTm,[9],19.5 °C
same,IC50,[12],21 nM
same,IC50,[13],21 nM
CN[C@@H](C)C(=O)N[C@H](C(=O)N1CCC[C@H]1c1nc(C(=O)c2ccc(F)cc2)cs1)C1CCCCC1 [LCL-161],half-life at 200 µM,[5],> 120 min
same,EC50,SK-OV-3 [10],3 nM
same,EC50,SK-OV-3 [11],1 nM
